Data from the Deep4Chem optical property database.
Blank lines part the entries; values can stand above or below the compound they belong to.

Test: solvent given as SMILES

fluorescence lifetime (in CN(C)C=O): 1.48 ns
SMILES: CCCCCCCCC1(CCCCCCCC)c2cc(-c3ccc(C(=O)OC)cc3)ccc2-c2ccc(-c3ccc(C(=O)OC)cc3)cc21

fluorescence lifetime (in ClCCl): 7 ns
SMILES: COc1ccc(C#Cc2c3ccccc3c(C#Cc3ccc(OC)cc3)c3cc4ccccc4cc23)cc1

fluorescence lifetime (in C1CCCCC1): 20.6 ns
fluorescence lifetime (in CC#N): 25.8 ns
fluorescence lifetime (in CO): 22.9 ns
fluorescence lifetime (in ClCCl): 22 ns
SMILES: COc1c2ccccc2c(OC)c2c1c1ccc(C)cc1n2C

fluorescence lifetime (in CC#N): 2.41 ns
SMILES: Cc1ccc2nc3[nH]c(=O)[nH]c(=O)c3nc2c1C

fluorescence lifetime (in ClCCl): 0.1 ns
SMILES: CC(C)(C)c1ccc2c(c1)c1cc(C(C)(C)C)ccc1n2-c1ccc(C#Cc2ccc3c4ccc(C#Cc5ccc(-n6c7ccc(C(C)(C)C)cc7c7cc(C(C)(C)C)ccc76)cc5)cc4n(-c4ccc(C(F)(F)F)cc4)c3c2)cc1

fluorescence lifetime (in O): 2.27 ns
SMILES: Nc1ccc2ccc([O-])cc2c1

fluorescence lifetime (in ClC(Cl)Cl): 0.0093 ns
SMILES: CCCCCCN1C(=O)c2cccc3c(-c4ccc(Cl)s4)ccc(c23)C1=O

fluorescence lifetime (in CS(C)=O): 9.1 ns
SMILES: O=c1c2ccccc2[nH]c2ccccc12

fluorescence lifetime (in ClCCl): 1.4 ns
SMILES: F[B-]1(F)OC(c2ccccc2)=Cc2cc3[n+](c[n+]21)[B-](F)(F)OC(c1ccccc1)=C3

fluorescence lifetime (in C1CCOC1): 0.42 ns
SMILES: Cc1csc(C)c1C1=C(c2c(C)sc(-c3ccc(-c4nc(-c5ccccc5)c(-c5ccccc5)[nH]4)cc3)c2C)C(F)(F)C(F)(F)C1(F)F

SMILES: COc1cc(OC)cc(-c2ccc(-c3ccc(C#N)s3)s2)c1
fluorescence lifetime (in C1CCCCC1): 0.22 ns
fluorescence lifetime (in C1COCCO1): 0.23 ns
fluorescence lifetime (in CC#N): 0.24 ns
fluorescence lifetime (in CC(C)O): 0.23 ns
fluorescence lifetime (in CCCCO): 0.24 ns
fluorescence lifetime (in CCO): 0.24 ns
fluorescence lifetime (in CCOC(C)=O): 0.22 ns
fluorescence lifetime (in CN(C)C=O): 0.28 ns
fluorescence lifetime (in CO): 0.25 ns
fluorescence lifetime (in CS(C)=O): 0.35 ns
fluorescence lifetime (in Cc1ccccc1): 0.22 ns
fluorescence lifetime (in ClC(Cl)Cl): 0.22 ns
fluorescence lifetime (in ClCCl): 0.23 ns
fluorescence lifetime (in O): 1.02 ns

fluorescence lifetime (in ClCCl): 11.1 ns
SMILES: CC[B-]1(CC)c2cccc3c4c5c(cccc5c(c23)-c2cccc(C)[n+]21)[B-](CC)(CC)[n+]1c(C)cccc1-4

fluorescence lifetime (in CC#N): 2.66 ns
fluorescence lifetime (in CO): 2.47 ns
fluorescence lifetime (in O): 3.17 ns
SMILES: CN(C)CCCN1c2ccccc2Sc2ccc(C(F)(F)F)cc21

SMILES: CN(C)c1ccc(C2=Nc3sc4ccccc4[n+]3[B-](F)(F)O2)cc1
fluorescence lifetime (in Cc1ccccc1): 1.74 ns

fluorescence lifetime (in ClCCl): 9.7 ns
SMILES: COc1ccc(-c2c3cc4cc(C)sc4cc3c(-c3ccc(OC)cc3)c3cc4cc(C)sc4cc23)cc1

SMILES: CCNc1ccc2c(C(F)(F)F)cc(=O)oc2c1
fluorescence lifetime (in C1CCC2CCCCC2C1): 3.67 ns
fluorescence lifetime (in C1CCCCC1): 3.56 ns
fluorescence lifetime (in CC1CCCCC1): 3.55 ns
fluorescence lifetime (in CC#N): 5.23 ns
fluorescence lifetime (in CC(C)=O): 5.08 ns
fluorescence lifetime (in CC(C)O): 5.14 ns
fluorescence lifetime (in CCC(C)CC): 3.39 ns
fluorescence lifetime (in CCCC(C)C): 3.38 ns
fluorescence lifetime (in CCCCCC): 3.3 ns
fluorescence lifetime (in CCCCCCO): 5.23 ns
fluorescence lifetime (in CCCCO): 5.24 ns
fluorescence lifetime (in CCO): 5.04 ns
fluorescence lifetime (in CCOC(C)=O): 4.83 ns
fluorescence lifetime (in CO): 4.84 ns

fluorescence lifetime (in ClC(Cl)Cl): 1.4 ns
SMILES: COc1ccc2cc(-c3ccc(-c4cc5ccc(OC)cc5oc4=O)cc3)c(=O)oc2c1

fluorescence lifetime (in N#Cc1ccc2c(c1)c1ccccc1n2-c1cccc(-n2c3ccccc3c3ccccc32)c1): 23.7 ns
SMILES: CC1(C)c2ccccc2N(c2ccc(-c3ncc(C#N)cn3)cc2)c2ccccc21

fluorescence lifetime (in CC#N): 0.35 ns
SMILES: O=c1[nH]c(=O)c2nc3ccccc3nc2[nH]1

fluorescence lifetime (in CC#N): 1.8 ns
fluorescence lifetime (in CCOC(C)=O): 1.4 ns
SMILES: [C-]#[N+]c1ccc(-c2ccc(NC)cc2)cc1

fluorescence lifetime (in C1CCOC1): 19.2 ns
fluorescence lifetime (in CN(C)C=O): 12.5 ns
SMILES: O=C(O)c1ccc(C(=O)O)c2cc3ccccc3cc12

fluorescence lifetime (in ClC(Cl)Cl): 3.4 ns
SMILES: CCCCCCCCN1C(=O)c2ccc3c4c(-c5ccc(-n6c7ccccc7c7ccccc76)cc5)cc5c6c(ccc(c7c(-c8ccc(-n9c%10ccccc%10c%10ccccc%109)cc8)cc(c2c37)C1=O)c64)C(=O)N(CCCCCCCC)C5=O

fluorescence lifetime (in CC1CCCCC1): 3.6 ns
SMILES: CC(C)(C)c1ccc2cc3c4cccc5cccc(c6cc(C(C)(C)C)cc(c2c1)c63)c54

fluorescence lifetime (in ClCCCl): 0.16 ns
SMILES: N#Cc1ccc2nc3c(=O)[nH]c(=O)[nH]c3nc2c1

fluorescence lifetime (in ClC(Cl)Cl): 1.3 ns
SMILES: Cc1cc(=O)oc2cc3c4ccc(C(C)(C)C)cc4c4cc(C(C)(C)C)ccc4c3cc12

fluorescence lifetime (in C1CCOC1): 0.48 ns
SMILES: Cc1sc(-c2ccc(-c3nc(-c4ccccc4)c(-c4ccccc4)[nH]3)cc2)c(C)c1C1=C(c2c(C)n(C)c3ccccc23)C(F)(F)C(F)(F)C1(F)F

fluorescence lifetime (in C1CCCCC1): 0.49 ns
SMILES: COC(=O)c1nc(Br)c(-c2ccccc2)o1

fluorescence lifetime (in CN(C)C=O): 2.8 ns
SMILES: O=C1NC(=O)c2ccc3c4ccc5c6c(ccc(c7ccc1c2c73)c64)C(=O)N(c1ccc(O)cc1)C5=O

fluorescence lifetime (in ClCCl): 0.1 ns
SMILES: N#C/C(=C(/C#N)c1ccc(-c2ccncc2)cc1)c1ccc(-c2ccncc2)cc1

fluorescence lifetime (in ClC(Cl)Cl): 0.37 ns
SMILES: CC1=CC(C)=[N+]2C1=C(c1ccc(I)cc1)c1c(C)cc(C)n1[B-]2(Oc1ccc(Cl)cc1)Oc1ccc(Cl)cc1

SMILES: c1ccc2c(c1)Sc1ccc(-n3c4ccccc4c4ccccc43)cc1S2
fluorescence lifetime (in CC1CCCCC1): 9.4 ns
fluorescence lifetime (in O=P(c1ccccc1)(c1ccccc1)c1ccccc1Oc1ccccc1P(=O)(c1ccccc1)c1ccccc1): 3.5 ns
fluorescence lifetime (in c1cc(-c2cccc(-n3c4ccccc4c4ccccc43)c2)cc(-n2c3ccccc3c3ccccc32)c1): 5.1 ns

fluorescence lifetime (in CC1CCCCC1): 1.05 ns
fluorescence lifetime (in CC#N): 1.14 ns
fluorescence lifetime (in CO): 1.21 ns
SMILES: C=CCOc1ccc(-c2nc3cc(C(NC(=O)OC(C)(C)C)C(=O)OC)ccc3o2)cc1 (centres undefined)

fluorescence lifetime (in ClCCl): 4.52 ns
SMILES: F[B-]12Oc3ccccc3-c3c4[n+]5c(c([n+]31)-c1ccccc1O2)-c1ccccc1O[B-]5(F)Oc1ccccc1-4

fluorescence lifetime (in O): 31.2 ns
SMILES: O=S(=O)([O-])CCC[n+]1c2ccccc2cc2ccccc21

fluorescence lifetime (in C1CCCCC1): 8.8 ns
fluorescence lifetime (in CC#N): 2.2 ns
fluorescence lifetime (in c1ccccc1): 8.4 ns
SMILES: CNc1cccc2c1-c1ccccc1C2=O

fluorescence lifetime (in C1CCOC1): 5.14 ns
SMILES: CCn1c2ccccc2c2cc(-c3cc(-c4ccc5c(c4)c4ccccc4n5CC)nc(-c4ccc(C#N)cc4)n3)ccc21

SMILES: N#Cc1cc(N2c3ccccc3Oc3ccccc32)cc(N2c3ccccc3Oc3ccccc32)c1
fluorescence lifetime (in Cc1ccccc1): 26.1 ns

fluorescence lifetime (in CS(C)=O): 10.8 ns
SMILES: O=c1c2cc(S(=O)(=O)Cl)ccc2[nH]c2ccc(S(=O)(=O)Cl)cc12

SMILES: CCN(CC)c1ccc(-c2nc3c(c4c2-c2ccccc2CC4)-c2ccccc2CC3)cc1
fluorescence lifetime (in C1CCOC1): 1.06 ns
fluorescence lifetime (in CC#N): 0.68 ns
fluorescence lifetime (in CCOC(C)=O): 0.85 ns
fluorescence lifetime (in CO): 0.68 ns
fluorescence lifetime (in CS(C)=O): 1.02 ns
fluorescence lifetime (in Cc1ccccc1): 0.8 ns
fluorescence lifetime (in ClCCl): 1.22 ns

fluorescence lifetime (in CS(C)=O): 0.36 ns
SMILES: O=S(=O)([O-])CCCCN1C=C/C(=C/C=C/C=C/c2cc[n+](CCCCS(=O)(=O)[O-])c3ccccc23)c2ccccc21

fluorescence lifetime (in C1CCCCC1): 0.064 ns
fluorescence lifetime (in CC#N): 0.376 ns
fluorescence lifetime (in CN(C)C=O): 0.194 ns
fluorescence lifetime (in CO): 0.148 ns
fluorescence lifetime (in CS(C)=O): 0.196 ns
fluorescence lifetime (in c1ccccc1): 0.201 ns
SMILES: COc1cc(/C=C/C(=O)CC(=O)/C=C/c2ccc(O)c(OC)c2)ccc1O

SMILES: COc1ccc(C2=CC(c3ccc4ccccc4c3)=[O+][B-](C(C)=O)(C(C)=O)O2)cc1
fluorescence lifetime (in CC#N): 3 ns
fluorescence lifetime (in ClC(Cl)(Cl)Cl): 1.2 ns

fluorescence lifetime (in CCO): 0.43 ns
fluorescence lifetime (in ClC(Cl)Cl): 3.44 ns
fluorescence lifetime (in O): 0.13 ns
SMILES: CCOC(=O)c1ccccc1-c1c2ccc(=[N+](CC)CC)cc-2oc2c1c(=O)oc1c3c4c(cc12)CCCN4CCC3

SMILES: COC(=O)C(Cc1ccc2oc(-c3ccc(N(C)c4ccccc4)cc3)nc2c1)NC(=O)OC(C)(C)C (centres undefined)
fluorescence lifetime (in C1CCCCC1): 1.81 ns
fluorescence lifetime (in C1CCOC1): 5.29 ns
fluorescence lifetime (in C1COCCO1): 4.14 ns
fluorescence lifetime (in CC1CCCO1): 4.37 ns
fluorescence lifetime (in CC1COC(=O)O1): 4.3 ns
fluorescence lifetime (in CC#N): 4.23 ns
fluorescence lifetime (in CC(C)=O): 5.11 ns
fluorescence lifetime (in CC(C)CC(C)(C)C): 1.7 ns
fluorescence lifetime (in CC(C)CO): 4.24 ns
fluorescence lifetime (in CC(C)O): 4.41 ns
fluorescence lifetime (in CC(O)CO): 0.88 ns
fluorescence lifetime (in CCC(C)CC): 1.67 ns
fluorescence lifetime (in CCCCC): 1.88 ns
fluorescence lifetime (in CCCCCC): 1.66 ns
fluorescence lifetime (in CCCCCCCCC): 1.78 ns
fluorescence lifetime (in CCCCCCCCCC): 1.79 ns
fluorescence lifetime (in CCCCCCCO): 4.34 ns
fluorescence lifetime (in CCCCCCO): 4.64 ns
fluorescence lifetime (in CCCCCO): 5.44 ns
fluorescence lifetime (in CCCCO): 3.97 ns
fluorescence lifetime (in CCO): 1.59 ns
fluorescence lifetime (in CCOC(C)=O): 4.68 ns
fluorescence lifetime (in CCOCC): 4.4 ns
fluorescence lifetime (in CN(C)C=O): 5.1 ns
fluorescence lifetime (in CO): 0.76 ns
fluorescence lifetime (in COCCOC): 1.18 ns
fluorescence lifetime (in CS(C)=O): 4.74 ns
fluorescence lifetime (in Cc1ccccc1): 2.81 ns
fluorescence lifetime (in Cc1ccccc1C): 2.7 ns
fluorescence lifetime (in ClC(Cl)Cl): 4.71 ns
fluorescence lifetime (in ClCCl): 6.11 ns
fluorescence lifetime (in NC=O): 2.35 ns
fluorescence lifetime (in OC1CCCCC1): 4.88 ns
fluorescence lifetime (in OCCO): 0.41 ns
fluorescence lifetime (in c1ccccc1): 2.97 ns

fluorescence lifetime (in O): 14.2 ns
SMILES: O=C(O)CCCCCn1c2ccccc2c(=O)c2ccccc21

fluorescence lifetime (in CCO): 2.1 ns
SMILES: Cc1cc(C)c(-c2nnc(-c3ccc(-n4c5ccccc5c5ccccc54)cc3)o2)c(C)c1

fluorescence lifetime (in C1CCCCC1): 4.3 ns
SMILES: CCCCc1cc2cccc[n+]2[b-]2c(-c3cccc4[b-]3[n+]3ccccc3cc4CCCC)cccc21

fluorescence lifetime (in CC#N): 0.86 ns
SMILES: c1ccc(-c2nc(-c3ccc(-c4cccs4)s3)[nH]c2-c2ccccc2)cc1

fluorescence lifetime (in CC#N): 0.97 ns
SMILES: COc1ccc(/C=C/c2nc3c4ccccc4c4ccccc4c3o2)cc1

SMILES: Cc1cccc2c3ccccc3n(-c3ccc(-c4c(-c5ccccc5)c(C#N)c(C#N)c(-c5ccccc5)c4-c4ccc(-n5c6ccccc6c6cccc(C)c65)cc4)cc3)c12
fluorescence lifetime (in O=P(c1ccccc1)(c1ccccc1)c1ccc2oc3ccc(P(=O)(c4ccccc4)c4ccccc4)cc3c2c1): 41 ns

fluorescence lifetime (in ClCCl): 6.71 ns
SMILES: CC1=C2c3ccccc3C(c3ccc[nH]3)=[N+]2[B-](F)(F)n2cccc21

fluorescence lifetime (in ClCCl): 6.6 ns
SMILES: F[B-]1(F)n2c(c3cccc4cccc2c43)=Nc2sc3ccccc3[n+]21

fluorescence lifetime (in CC#N): 0.07 ns
fluorescence lifetime (in CC(C)O): 1.3 ns
fluorescence lifetime (in CCO): 1.7 ns
fluorescence lifetime (in CO): 2.55 ns
fluorescence lifetime (in OCCO): 4.6 ns
SMILES: Cc1ccc2sc3cc(CCC(=O)O)ccc3c(=O)c2c1
